Laboratory results taken from the NIST ThermoML archive (doi:10.1016/j.tca.2011.08.002).
Numbers after ± are expanded uncertainties.

Assay: refractive index (Na D-line) (dimensionless); xn = mol fraction of the nth substance listed
Settings: 101 kPa, Liquid, Standard Abbe refractometry

Work on `C1CCC(NC2CCCCC2)CC1` [N-cyclohexylcyclohexanamine] + CCCCO yielded a refractive index (288.15 K, x2 = 0) of 1.48636 ± 0.0004, a refractive index (288.15 K, x2 = 0.0512) of 1.48502 ± 0.0004 and a refractive index (288.15 K, x2 = 0.1) of 1.48368 ± 0.0004. For the same compound, the refractive index (288.15 K, x2 = 0.2005) was 1.48027 ± 0.00039, the refractive index (288.15 K, x2 = 0.3005) was 1.47614 ± 0.00039 and the refractive index (288.15 K, x2 = 0.4005) was 1.47121 ± 0.00038. The refractive index (288.15 K, x2 = 0.5) was 1.46517 ± 0.00038, the refractive index (288.15 K, x2 = 0.6002) was 1.45768 ± 0.00037 and the refractive index (288.15 K, x2 = 0.7002) was 1.44826 ± 0.00037. For the same compound, the refractive index (288.15 K, x2 = 0.7984) was 1.43656 ± 0.00037, the refractive index (288.15 K, x2 = 0.8999) was 1.42104 ± 0.00037 and the refractive index (288.15 K, x2 = 0.9493) was 1.41197 ± 0.00036. The refractive index (293.15 K, x2 = 0) was 1.48416 ± 0.0004, the refractive index (293.15 K, x2 = 0.0512) was 1.4828 ± 0.0004 and the refractive index (293.15 K, x2 = 0.1) was 1.48147 ± 0.0004. It also gave a refractive index (293.15 K, x2 = 0.2005) of 1.47804 ± 0.00039, a refractive index (293.15 K, x2 = 0.3005) of 1.4739 ± 0.00039 and a refractive index (293.15 K, x2 = 0.4005) of 1.46892 ± 0.00038. The refractive index (293.15 K, x2 = 0.5) was 1.46289 ± 0.00038, the refractive index (293.15 K, x2 = 0.6002) was 1.45538 ± 0.00038 and the refractive index (293.15 K, x2 = 0.7002) was 1.44587 ± 0.00037. The refractive index (293.15 K, x2 = 0.7984) was 1.43432 ± 0.00037, the refractive index (293.15 K, x2 = 0.8999) was 1.4189 ± 0.00037 and the refractive index (293.15 K, x2 = 0.9493) was 1.40987 ± 0.00037. For the same compound, the refractive index (298.15 K, x2 = 0) was 1.48198 ± 0.0004, the refractive index (298.15 K, x2 = 0.0512) was 1.4806 ± 0.0004 and the refractive index (298.15 K, x2 = 0.1) was 1.47926 ± 0.0004. The refractive index (298.15 K, x2 = 0.2005) was 1.47579 ± 0.00039, the refractive index (298.15 K, x2 = 0.3005) was 1.47165 ± 0.00039 and the refractive index (298.15 K, x2 = 0.4005) was 1.46666 ± 0.00038. It also gave a refractive index (298.15 K, x2 = 0.5) of 1.46059 ± 0.00038, a refractive index (298.15 K, x2 = 0.6002) of 1.45309 ± 0.00038 and a refractive index (298.15 K, x2 = 0.7002) of 1.44368 ± 0.00037. It also gave a refractive index (298.15 K, x2 = 0.7984) of 1.43208 ± 0.00037, a refractive index (298.15 K, x2 = 0.8999) of 1.41673 ± 0.00037 and a refractive index (298.15 K, x2 = 0.9493) of 1.40779 ± 0.00036. It also gave a refractive index (303.15 K, x2 = 0) of 1.47978 ± 0.0004, a refractive index (303.15 K, x2 = 0.0512) of 1.47842 ± 0.0004 and a refractive index (303.15 K, x2 = 0.1) of 1.47704 ± 0.0004. It also gave a refractive index (303.15 K, x2 = 0.2005) of 1.47358 ± 0.00039, a refractive index (303.15 K, x2 = 0.3005) of 1.46939 ± 0.00039 and a refractive index (303.15 K, x2 = 0.4005) of 1.4644 ± 0.00038. The refractive index (303.15 K, x2 = 0.5) was 1.45831 ± 0.00038, the refractive index (303.15 K, x2 = 0.6002) was 1.4508 ± 0.00038 and the refractive index (303.15 K, x2 = 0.7002) was 1.44139 ± 0.00037. The refractive index (303.15 K, x2 = 0.7984) was 1.42985 ± 0.00037, the refractive index (303.15 K, x2 = 0.8999) was 1.4146 ± 0.00037 and the refractive index (303.15 K, x2 = 0.9493) was 1.40565 ± 0.00037. It also gave a refractive index (308.15 K, x2 = 0) of 1.47761 ± 0.0004, a refractive index (308.15 K, x2 = 0.0512) of 1.47623 ± 0.0004 and a refractive index (308.15 K, x2 = 0.1) of 1.47485 ± 0.0004. The refractive index (308.15 K, x2 = 0.2005) was 1.47136 ± 0.00039, the refractive index (308.15 K, x2 = 0.3005) was 1.46716 ± 0.00039 and the refractive index (308.15 K, x2 = 0.4005) was 1.46213 ± 0.00038. It also gave a refractive index (308.15 K, x2 = 0.5) of 1.45604 ± 0.00038, a refractive index (308.15 K, x2 = 0.6002) of 1.44852 ± 0.00038 and a refractive index (308.15 K, x2 = 0.7002) of 1.43914 ± 0.00037. For the same compound, the refractive index (308.15 K, x2 = 0.7984) was 1.42763 ± 0.00037, the refractive index (308.15 K, x2 = 0.8999) was 1.41241 ± 0.00037 and the refractive index (308.15 K, x2 = 0.9493) was 1.40352 ± 0.00036. The refractive index (313.15 K, x2 = 0) was 1.47562 ± 0.0004, the refractive index (313.15 K, x2 = 0.0512) was 1.47419 ± 0.0004 and the refractive index (313.15 K, x2 = 0.1) was 1.47267 ± 0.0004. For the same compound, the refractive index (313.15 K, x2 = 0.2005) was 1.4691 ± 0.00039, the refractive index (313.15 K, x2 = 0.3005) was 1.46487 ± 0.00039 and the refractive index (313.15 K, x2 = 0.4005) was 1.45979 ± 0.00038. It also gave a refractive index (313.15 K, x2 = 0.5) of 1.45368 ± 0.00038, a refractive index (313.15 K, x2 = 0.6002) of 1.44613 ± 0.00038 and a refractive index (313.15 K, x2 = 0.7002) of 1.43676 ± 0.00037. The refractive index (313.15 K, x2 = 0.7984) was 1.42522 ± 0.00037, the refractive index (313.15 K, x2 = 0.8999) was 1.41016 ± 0.00037 and the refractive index (313.15 K, x2 = 0.9493) was 1.40134 ± 0.00036. For the same compound, the refractive index (318.15 K, x2 = 0) was 1.47347 ± 0.0004, the refractive index (318.15 K, x2 = 0.0512) was 1.472 ± 0.0004 and the refractive index (318.15 K, x2 = 0.1) was 1.47049 ± 0.0004. For the same compound, the refractive index (318.15 K, x2 = 0.2005) was 1.46689 ± 0.00039, the refractive index (318.15 K, x2 = 0.3005) was 1.46265 ± 0.00039 and the refractive index (318.15 K, x2 = 0.4005) was 1.45753 ± 0.00038. For the same compound, the refractive index (318.15 K, x2 = 0.5) was 1.4514 ± 0.00038, the refractive index (318.15 K, x2 = 0.6002) was 1.44384 ± 0.00038 and the refractive index (318.15 K, x2 = 0.7002) was 1.43447 ± 0.00037. The refractive index (318.15 K, x2 = 0.7984) was 1.42299 ± 0.00037, the refractive index (318.15 K, x2 = 0.8999) was 1.40798 ± 0.00037 and the refractive index (318.15 K, x2 = 0.9493) was 1.39919 ± 0.00036. For the same compound, the refractive index (323.15 K, x2 = 0) was 1.47134 ± 0.0004, the refractive index (323.15 K, x2 = 0.0512) was 1.46985 ± 0.0004 and the refractive index (323.15 K, x2 = 0.1) was 1.46835 ± 0.0004. It also gave a refractive index (323.15 K, x2 = 0.2005) of 1.46474 ± 0.00039, a refractive index (323.15 K, x2 = 0.3005) of 1.46049 ± 0.00039 and a refractive index (323.15 K, x2 = 0.4005) of 1.45537 ± 0.00038. It also gave a refractive index (323.15 K, x2 = 0.5) of 1.4492 ± 0.00038, a refractive index (323.15 K, x2 = 0.6002) of 1.44162 ± 0.00038 and a refractive index (323.15 K, x2 = 0.7002) of 1.43225 ± 0.00037. It also gave a refractive index (323.15 K, x2 = 0.7984) of 1.42074 ± 0.00037, a refractive index (323.15 K, x2 = 0.8999) of 1.40571 ± 0.00037 and a refractive index (323.15 K, x2 = 0.9493) of 1.39701 ± 0.00037.
